# Reference: patent US10512637B2, “Use of inhibitor of cystine-glutamate transporter” (CHINA MEDICAL UNIVERSITY, priority 2015, dated 2019)
# Key:
# alcohol-dependent mice = assay: Free-choice two-bottle drinking after chronic alcohol exposure; format: in vivo, C57BL/6J mice; conditions: WT mice after chronic alcohol exposure; treatment for 7 days; sulfasalazine 15 mg/kg/day i.p., sorafenib 30 mg/kg i.p., regorafenib 30 mg/kg i.p.; compared to control vehicle (DMSO); FIG. 2B
# Experimental: Data are means±SD (n=6-8). *P<0.0001 compared to water. ^#P<0.0001 compared to WT mice or vehicle treatment.
# (§1) The concentration of alcohol was increased every fourteenth day. […] Intakes were recorded every day.
# [1] = system: TUNEL-positive cells in frontal cortex; assay: TUNEL staining of brain after chronic alcohol exposure; format: in vivo, C57BL/6J mice; conditions: WT mice; treatment for 14 days; sulfasalazine 15 mg/kg/day i.p., sorafenib 30 mg/kg i.p., regorafenib 30 mg/kg i.p.; compared to vehicle; FIG. 4B
# Experimental: as §1
# wild type cortical cells = assay: Annexin V apoptosis assay in primary cortical cells exposed to alcohol or cocaine; format: cell-based, C57BL/6J mouse; conditions: alcohol or cocaine incubation, 18 hours; sulfasalazine 500 μM, sorafenib 10 μM, regorafenib 10 μM; compared to vehicle (DMSO); FIG. 6
# Experimental: Data are means±SD (n=3). *P<0.001 compared to vehicle group.
# Primary cortical cells were prepared from cerebral cortices of wild-type C57BL/6J or xCT homozygous knockout (xCT KO) mouse embryos in embryonic day 17 as previously described in Shyu, W. C., et al., Secretoneurin promotes neuroprotection and neuronal plasticity via the Jak2/Stat3 pathway in murine models of stroke. J Clin Invest, 2008. 118(1): p. 133-48.
# Annexin V staining was performed to determine cell apoptosis using the Annexin V-FITC Apoptosis Detection Kit (Sigma-Aldrich) for 10 minutes at room temperature according to the manufacturer's instructions, and then flow cytometric analysis was performed.
# [2] = system: cocaine-dependent WT mice; assay: Free-choice two-bottle drinking after chronic cocaine exposure; format: in vivo, C57BL/6J mice; conditions: WT mice after chronic cocaine exposure (15 mg/kg i.p., 7 days); sulfasalazine 15 mg/kg/day i.p. for 6 days during free-choice drinking; compared to vehicle
Compound,daily alcohol consumption during free-choice drinking (alcohol-dependent mice),chronic alcohol exposure-induced apoptosis (TUNEL-positive cells) in brain [1],substance-induced apoptosis in cortical cells (wild type cortical cells),cocaine preference and craving behaviours [2]
CNC(=O)c1cc(Oc2ccc(NC(=O)Nc3ccc(Cl)c(C(F)(F)F)c3)c(F)c2)ccn1 [regorafenib],significantly attenuated the daily alcohol consumption,inhibited apoptosis,significantly inhibited substance-induced apoptosis,
CNC(=O)c1cc(Oc2ccc(NC(=O)Nc3ccc(Cl)c(C(F)(F)F)c3)cc2)ccn1 [sorafenib],significantly attenuated the daily alcohol consumption,inhibited apoptosis,significantly inhibited substance-induced apoptosis,
O=C(O)c1cc(/N=N/c2ccc(S(=O)(=O)Nc3ccccn3)cc2)ccc1O [sulfasalazine],significantly attenuated the daily alcohol consumption,,significantly inhibited substance-induced apoptosis,fully inhibited cocaine preference and craving behaviours
